Results on five molecules are retold here after ChEMBL document CHEMBL1152225, “Optimization of a series of potent and selective ketone histone deacetylase inhibitors” (Bioorg Med Chem Lett, 2008).

The source made the active and inactive calls. No cut-off for these calls is given here.

Among the targets are Histone deacetylase 2 (Homo sapiens, UniProt Q92769); Histone deacetylase 1 (Homo sapiens, UniProt Q13547); Histone deacetylase 3 (Homo sapiens, UniProt O15379).
The target of a further data set is Histone deacetylase 4 (Homo sapiens, UniProt P56524). Put plainly: Inhibition of HDAC4.
Data set [1] concerns HCT-116. The data set is described as follows: In vivo antitumor activity against human HCT116 cells. The data set is classed as functional, organism-based.
A short description of data set [2]: Metabolic stability in rat liver microsomes assessed as intrinsic clearance. The data set is classed as ADME, Microsome. For orientation: Liver microsomes are a subcellular fraction often used to study metabolism.
In another data set the target is T1, Histone deacetylase 7 (Homo sapiens, UniProt Q8WUI4).
T1 sequence (Q8WUI4 whole entry): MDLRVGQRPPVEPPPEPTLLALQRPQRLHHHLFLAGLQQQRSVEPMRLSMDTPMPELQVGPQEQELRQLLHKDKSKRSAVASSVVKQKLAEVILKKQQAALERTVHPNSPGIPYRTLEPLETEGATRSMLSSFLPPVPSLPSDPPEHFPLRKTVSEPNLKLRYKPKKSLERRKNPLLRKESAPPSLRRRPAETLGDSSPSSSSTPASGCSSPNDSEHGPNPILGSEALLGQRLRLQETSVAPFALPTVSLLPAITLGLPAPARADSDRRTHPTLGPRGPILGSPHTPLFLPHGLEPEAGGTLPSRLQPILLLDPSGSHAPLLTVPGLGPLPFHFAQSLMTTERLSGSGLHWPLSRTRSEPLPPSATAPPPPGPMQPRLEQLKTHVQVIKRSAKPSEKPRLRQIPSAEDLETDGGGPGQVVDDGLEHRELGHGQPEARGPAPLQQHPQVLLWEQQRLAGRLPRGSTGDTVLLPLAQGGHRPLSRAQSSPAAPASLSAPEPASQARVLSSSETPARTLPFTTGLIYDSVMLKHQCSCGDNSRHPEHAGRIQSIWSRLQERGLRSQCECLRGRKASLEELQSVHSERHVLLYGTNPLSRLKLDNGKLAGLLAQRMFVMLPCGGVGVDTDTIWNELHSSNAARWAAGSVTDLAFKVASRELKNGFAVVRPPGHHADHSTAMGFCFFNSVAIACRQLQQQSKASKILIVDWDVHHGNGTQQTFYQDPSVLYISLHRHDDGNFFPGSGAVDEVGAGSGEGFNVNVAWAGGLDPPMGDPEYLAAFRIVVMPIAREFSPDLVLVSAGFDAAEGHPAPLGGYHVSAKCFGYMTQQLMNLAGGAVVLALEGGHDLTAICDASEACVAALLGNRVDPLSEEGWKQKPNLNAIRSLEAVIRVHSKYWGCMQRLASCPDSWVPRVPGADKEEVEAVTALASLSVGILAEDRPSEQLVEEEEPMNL
Put plainly: Inhibition of HDAC7.

A further data set has as its target Histone deacetylase 5 (Homo sapiens, UniProt Q9UQL6). The data set is described as follows: Inhibition of HDAC5.
In another data set the target is T2, Histone deacetylase 8 (Homo sapiens, UniProt Q9BY41).
T2 sequence (Q9BY41 whole entry): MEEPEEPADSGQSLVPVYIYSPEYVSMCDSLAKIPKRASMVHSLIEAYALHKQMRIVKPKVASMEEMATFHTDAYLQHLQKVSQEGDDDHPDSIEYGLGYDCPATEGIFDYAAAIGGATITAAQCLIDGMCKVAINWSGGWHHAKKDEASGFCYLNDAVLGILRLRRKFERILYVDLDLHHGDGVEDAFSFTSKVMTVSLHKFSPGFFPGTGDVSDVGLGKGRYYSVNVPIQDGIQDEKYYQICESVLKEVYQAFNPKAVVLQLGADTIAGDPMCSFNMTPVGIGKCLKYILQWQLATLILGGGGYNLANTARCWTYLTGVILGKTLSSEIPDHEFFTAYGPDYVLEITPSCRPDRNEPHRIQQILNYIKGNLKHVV
Put plainly: Inhibition of HDAC8.

Data set [3] can be described thus: Protein binding in dog plasma. Type of data set: ADME, cell-free, Canis lupus familiaris. The settings on record: read-out: PPB (converted).
A short description of data set [4]: Clearance in iv dosed rat. The data set is classed as ADME, organism-based. The settings on record: in vivo.
A short description of data set [5]: Half life in iv dosed rat. The data set is classed as ADME, organism-based. The settings on record: in vivo.
Data set [6] relates to HCT-116. The data set is described as follows: Antiproliferative activity against human HCT116 cells after 72 hrs by celltiter-blue viability assay. The data set is classed as functional, cell-based. The settings on record: HCT-116, 72 h. On the technique in general: The colour change of resazurin is a common sign of viable cells or microbes.
The nature of data set [7]: Volume of distribution at steady state in iv dosed rat. Type of data set: ADME, organism-based. The settings on record: in vivo, read-out: Vdss.
Another data set relates to A549. The data set is described as follows: Antiproliferative activity against human A549 cells after 72 hrs by celltiter-blue viability assay. Type of data set: functional, cell-based. The settings on record: A549, 72 h.
The nature of data set [8]: Clearance in iv dosed dog. The data set is classed as ADME, organism-based, Canis lupus familiaris. The settings on record: in vivo.
Data set [9] can be described thus: Half life in iv dosed dog. The data set is classed as ADME, organism-based, Canis lupus familiaris. The settings on record: in vivo.
Data set [10] is described as follows: Volume of distribution at steady state in iv dosed dog. Type of data set: ADME, organism-based, Canis lupus familiaris. The settings on record: in vivo, read-out: Vdss.
The nature of data set [11]: Oral bioavailability in rat. The settings on record: in vivo. Type of data set: ADME, organism-based.
Data set [12] in a line: Protein binding in rat plasma. Type of data set: ADME, cell-free. The settings on record: read-out: PPB (converted).
The test system of a further data set is Liver microsomes. Put plainly: Metabolic stability in human liver microsomes assessed as intrinsic clearance. The data set is classed as ADME, Microsome.
Data set [13] has as its target T3, Protein deacetylase HDAC6 (Homo sapiens, UniProt Q9UBN7).
T3 sequence (Q9UBN7 whole entry): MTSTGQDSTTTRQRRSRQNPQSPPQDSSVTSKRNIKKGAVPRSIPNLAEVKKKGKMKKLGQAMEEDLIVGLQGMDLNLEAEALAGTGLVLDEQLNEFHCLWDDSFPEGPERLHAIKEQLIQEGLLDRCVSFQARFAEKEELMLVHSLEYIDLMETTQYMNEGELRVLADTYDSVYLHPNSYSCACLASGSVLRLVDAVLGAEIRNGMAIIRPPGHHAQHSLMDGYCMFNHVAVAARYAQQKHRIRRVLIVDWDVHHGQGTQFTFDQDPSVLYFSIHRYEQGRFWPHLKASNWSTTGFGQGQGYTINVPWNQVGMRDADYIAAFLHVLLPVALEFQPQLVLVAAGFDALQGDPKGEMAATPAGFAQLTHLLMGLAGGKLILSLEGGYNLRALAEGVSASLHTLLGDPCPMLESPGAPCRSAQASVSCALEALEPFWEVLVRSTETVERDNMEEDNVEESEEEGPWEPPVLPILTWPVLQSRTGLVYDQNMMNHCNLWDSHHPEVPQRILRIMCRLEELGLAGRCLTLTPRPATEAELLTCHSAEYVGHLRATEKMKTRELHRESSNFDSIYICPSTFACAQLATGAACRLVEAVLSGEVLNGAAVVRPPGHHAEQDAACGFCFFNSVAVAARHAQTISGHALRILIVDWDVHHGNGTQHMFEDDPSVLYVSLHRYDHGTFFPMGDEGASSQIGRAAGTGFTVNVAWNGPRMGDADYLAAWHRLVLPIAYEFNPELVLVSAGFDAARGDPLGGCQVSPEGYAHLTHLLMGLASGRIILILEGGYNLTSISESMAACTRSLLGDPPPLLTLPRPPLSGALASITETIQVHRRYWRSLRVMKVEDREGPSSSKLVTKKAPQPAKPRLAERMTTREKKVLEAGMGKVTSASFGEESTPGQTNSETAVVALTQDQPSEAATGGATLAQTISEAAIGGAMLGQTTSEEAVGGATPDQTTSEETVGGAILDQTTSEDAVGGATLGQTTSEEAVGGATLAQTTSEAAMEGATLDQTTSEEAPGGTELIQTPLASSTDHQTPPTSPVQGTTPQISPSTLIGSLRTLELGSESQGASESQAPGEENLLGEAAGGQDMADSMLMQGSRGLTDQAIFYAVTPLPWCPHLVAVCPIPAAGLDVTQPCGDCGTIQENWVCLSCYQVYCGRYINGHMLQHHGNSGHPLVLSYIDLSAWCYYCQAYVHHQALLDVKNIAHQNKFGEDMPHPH

Data set [14] is described as follows: Oral bioavailability dog. Type of data set: ADME, organism-based, Canis lupus familiaris. The settings on record: in vivo.
Data set [15] is described as follows: Protein binding in human plasma. The settings on record: read-out: PPB (converted). Type of data set: ADME, cell-free.
Data set [16] can be described thus: Metabolic stability in dog liver microsomes assessed as intrinsic clearance. Type of data set: ADME, Canis lupus familiaris, Microsome.
In the next data set the test system is HeLa. Put plainly: Antiproliferative activity against human HeLa cells after 72 hrs by celltiter-blue viability assay. The data set is classed as functional, cell-based.

The IC50 is the concentration that inhibits the measured activity by half. One may read the microsomal CLint as the rate of metabolic loss divided by the concentration. For orientation: clearance means the volume of plasma or blood freed of the substance per unit of time. What is called half-life is how long it takes for the measured level to halve. Read a high half-life as slow loss. A word on the bioavailability: it is dose-corrected exposure relative to a reference, in per cent. Read a high bioavailability as much systemic uptake.

Sequence of Histone deacetylase 3 (O15379 whole entry): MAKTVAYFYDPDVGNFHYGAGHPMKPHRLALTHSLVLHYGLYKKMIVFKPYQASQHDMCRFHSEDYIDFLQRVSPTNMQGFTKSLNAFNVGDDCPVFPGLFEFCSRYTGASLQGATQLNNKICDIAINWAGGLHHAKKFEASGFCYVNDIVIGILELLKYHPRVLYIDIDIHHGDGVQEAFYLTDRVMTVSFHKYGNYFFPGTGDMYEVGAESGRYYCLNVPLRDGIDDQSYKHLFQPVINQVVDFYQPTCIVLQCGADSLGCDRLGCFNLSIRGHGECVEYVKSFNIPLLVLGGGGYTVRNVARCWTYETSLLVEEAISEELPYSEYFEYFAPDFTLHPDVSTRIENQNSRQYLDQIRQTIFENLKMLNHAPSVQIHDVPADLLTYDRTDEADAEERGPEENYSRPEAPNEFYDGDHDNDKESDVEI
Sequence of Histone deacetylase 1 (Q13547 whole entry): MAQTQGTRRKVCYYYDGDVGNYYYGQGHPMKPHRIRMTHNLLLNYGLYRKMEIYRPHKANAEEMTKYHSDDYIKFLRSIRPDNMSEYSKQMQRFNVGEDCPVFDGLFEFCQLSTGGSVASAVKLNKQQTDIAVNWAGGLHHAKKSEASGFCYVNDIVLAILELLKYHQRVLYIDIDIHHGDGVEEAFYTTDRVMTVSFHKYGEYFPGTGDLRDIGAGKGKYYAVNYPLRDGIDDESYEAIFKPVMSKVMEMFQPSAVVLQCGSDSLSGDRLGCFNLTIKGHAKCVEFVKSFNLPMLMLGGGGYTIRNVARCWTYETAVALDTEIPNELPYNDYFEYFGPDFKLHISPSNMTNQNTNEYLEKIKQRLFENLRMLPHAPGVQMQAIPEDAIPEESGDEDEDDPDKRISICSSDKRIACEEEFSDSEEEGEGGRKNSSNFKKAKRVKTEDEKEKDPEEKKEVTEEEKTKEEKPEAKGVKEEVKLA
Sequence of Histone deacetylase 5 (Q9UQL6 whole entry): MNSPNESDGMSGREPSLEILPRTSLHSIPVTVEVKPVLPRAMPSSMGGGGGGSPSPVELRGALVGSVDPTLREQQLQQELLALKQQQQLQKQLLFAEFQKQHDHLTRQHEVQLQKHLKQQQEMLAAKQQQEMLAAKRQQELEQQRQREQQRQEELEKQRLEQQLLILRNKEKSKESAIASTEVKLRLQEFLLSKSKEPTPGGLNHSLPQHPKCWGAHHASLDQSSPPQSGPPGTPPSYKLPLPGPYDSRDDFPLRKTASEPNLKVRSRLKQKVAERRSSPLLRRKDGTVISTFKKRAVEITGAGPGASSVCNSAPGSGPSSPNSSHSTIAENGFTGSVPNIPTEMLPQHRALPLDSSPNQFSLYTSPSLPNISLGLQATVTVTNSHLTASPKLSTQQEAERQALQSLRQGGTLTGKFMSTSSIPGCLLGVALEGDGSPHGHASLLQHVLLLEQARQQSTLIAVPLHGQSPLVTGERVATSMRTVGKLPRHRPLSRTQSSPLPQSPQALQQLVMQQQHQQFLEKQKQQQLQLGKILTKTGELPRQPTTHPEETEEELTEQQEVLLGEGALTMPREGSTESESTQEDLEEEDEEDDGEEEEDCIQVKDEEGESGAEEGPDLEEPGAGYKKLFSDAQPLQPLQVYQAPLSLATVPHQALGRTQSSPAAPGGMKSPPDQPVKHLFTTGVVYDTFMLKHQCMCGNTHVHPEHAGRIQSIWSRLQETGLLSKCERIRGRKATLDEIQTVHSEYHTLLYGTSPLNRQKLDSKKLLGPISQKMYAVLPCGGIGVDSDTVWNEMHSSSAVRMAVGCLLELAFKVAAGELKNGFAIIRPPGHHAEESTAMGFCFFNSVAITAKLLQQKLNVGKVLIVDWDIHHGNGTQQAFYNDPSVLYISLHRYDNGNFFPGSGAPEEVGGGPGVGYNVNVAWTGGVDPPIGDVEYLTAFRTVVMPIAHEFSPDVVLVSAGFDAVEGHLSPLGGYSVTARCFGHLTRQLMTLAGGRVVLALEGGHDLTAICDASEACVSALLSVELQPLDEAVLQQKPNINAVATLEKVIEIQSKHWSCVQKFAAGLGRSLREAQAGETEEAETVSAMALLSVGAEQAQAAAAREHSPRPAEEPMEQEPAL
Sequence of Histone deacetylase 4 (P56524 whole entry): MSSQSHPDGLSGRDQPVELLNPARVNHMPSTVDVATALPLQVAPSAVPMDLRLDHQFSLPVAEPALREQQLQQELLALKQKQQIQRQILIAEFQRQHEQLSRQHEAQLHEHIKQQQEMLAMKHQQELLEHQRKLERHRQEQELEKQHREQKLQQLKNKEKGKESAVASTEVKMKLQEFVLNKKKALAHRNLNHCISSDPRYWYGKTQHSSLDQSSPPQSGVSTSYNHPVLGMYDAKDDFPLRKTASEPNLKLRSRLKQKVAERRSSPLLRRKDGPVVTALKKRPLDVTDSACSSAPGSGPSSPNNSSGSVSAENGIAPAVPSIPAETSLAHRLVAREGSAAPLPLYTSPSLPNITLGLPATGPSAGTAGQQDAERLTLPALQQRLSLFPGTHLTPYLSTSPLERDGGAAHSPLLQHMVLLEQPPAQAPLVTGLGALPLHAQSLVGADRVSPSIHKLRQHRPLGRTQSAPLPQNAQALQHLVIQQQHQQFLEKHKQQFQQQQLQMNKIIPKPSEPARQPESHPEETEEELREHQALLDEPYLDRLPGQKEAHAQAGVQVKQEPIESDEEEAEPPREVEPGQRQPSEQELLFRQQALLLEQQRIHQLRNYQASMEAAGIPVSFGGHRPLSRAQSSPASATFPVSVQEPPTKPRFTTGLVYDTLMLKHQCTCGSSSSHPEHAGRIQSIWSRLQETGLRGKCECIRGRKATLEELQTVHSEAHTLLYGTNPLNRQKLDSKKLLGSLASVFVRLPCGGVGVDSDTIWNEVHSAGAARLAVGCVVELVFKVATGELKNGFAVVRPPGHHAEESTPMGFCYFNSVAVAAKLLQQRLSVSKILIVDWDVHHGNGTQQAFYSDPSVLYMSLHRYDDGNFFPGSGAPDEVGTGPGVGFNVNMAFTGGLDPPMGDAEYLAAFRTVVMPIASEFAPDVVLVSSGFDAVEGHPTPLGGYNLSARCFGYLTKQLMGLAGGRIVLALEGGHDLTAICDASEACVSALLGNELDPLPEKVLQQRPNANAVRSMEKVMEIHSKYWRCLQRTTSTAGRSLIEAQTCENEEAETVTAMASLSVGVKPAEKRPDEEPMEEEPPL
Sequence of Histone deacetylase 2 (Q92769 whole entry): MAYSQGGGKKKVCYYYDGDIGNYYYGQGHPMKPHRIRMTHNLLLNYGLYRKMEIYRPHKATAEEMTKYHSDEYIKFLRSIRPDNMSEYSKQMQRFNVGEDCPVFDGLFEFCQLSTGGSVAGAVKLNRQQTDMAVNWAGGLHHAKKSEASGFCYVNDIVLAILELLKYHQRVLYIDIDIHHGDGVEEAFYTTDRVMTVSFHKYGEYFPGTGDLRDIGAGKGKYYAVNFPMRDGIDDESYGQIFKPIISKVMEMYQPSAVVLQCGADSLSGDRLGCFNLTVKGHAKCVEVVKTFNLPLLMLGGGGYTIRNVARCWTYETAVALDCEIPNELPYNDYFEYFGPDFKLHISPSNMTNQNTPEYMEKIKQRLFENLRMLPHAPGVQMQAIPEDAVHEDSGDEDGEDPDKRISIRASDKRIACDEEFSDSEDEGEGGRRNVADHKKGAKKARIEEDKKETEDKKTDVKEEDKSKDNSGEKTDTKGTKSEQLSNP
Description for Histone deacetylase 1: Inhibition of human recombinant C-terminally flag tagged HDAC1

For `COc1ccc2[nH]c(C)c(CC(=O)N[C@@H](CCCCCC(C)=O)c3ncc(-c4ccccc4)[nH]3)c2c1`, the IC50 against Histone deacetylase 4, against Histone deacetylase 7, against Histone deacetylase 5 and on Histone deacetylase 8 was above 1000 nM each time. In addition, the result in the data set with HCT-116 [1] was Active. For the same molecule, the microsomal CLint in data set [2] was above 300 µL/min/mg.

Regarding `CC(=O)CCCCC[C@H](NC(=O)C1CCN(C)CC1)c1ncc(-c2ccc3ccccc3c2)[nH]1`, the IC50 against Histone deacetylase 4 was above 1000 nM; in the data set with HCT-116 [6] it was 590 nM; in the data set with A549 it was 720 nM; against Histone deacetylase 2, 29 nM; against Histone deacetylase 1, 11 nM; in data set [13], 10 nM. The IC50 on Histone deacetylase 3 was 17 nM; against Histone deacetylase 7, above 1000 nM; against Histone deacetylase 5, above 1000 nM; in the data set with HeLa, 300 nM; against Histone deacetylase 8 it was above 1000 nM. Further, the fraction unbound in data set [3] was 0.04; in data set [12], 0.11; in [15], 0.04. Further, the figures for the clearance in data set [4] and in data set [8] were 133 mL/min/kg and 7 mL/min/kg, respectively. Further, the figures for the half-life in data set [5] and in data set [9] were 2.4 h and 11.8 h, respectively. Moreover, the results for the Vd in data set [7] and in [10] were 6.9 L/kg and 5.2 L/kg, respectively. The bioavailability was determined as 0% in data set [11] and 28% in [14]. In addition, the CL in the data set with Liver microsomes was 12 µL/min/mg; in data set [16] it was 10 µL/min/mg. Moreover, in data set [2], the microsomal CLint stood at 194 µL/min/mg.

For the molecule `CCCC(=O)CCCCC[C@H](NC(=O)C1CCN(C)CC1)c1ncc(-c2ccc3ccccc3c2)[nH]1`, the IC50 against Histone deacetylase 1 is 16 nM; in [13], 1400 nM; on Histone deacetylase 3, 27 nM; with HeLa it was 200 nM.

Turning to `CCCCC(=O)CCCCC[C@H](NC(=O)C1CCN(C)CC1)c1ncc(-c2ccc3ccccc3c2)[nH]1`, the IC50 against Histone deacetylase 1 came to 74 nM; in data set [13], 3500 nM; on Histone deacetylase 3, 180 nM; in the data set with HeLa, 690 nM.

For the molecule `CCC(=O)CCCCC[C@H](NC(=O)C1CCN(C)CC1)c1ncc(-c2ccc3ccccc3c2)[nH]1`, the IC50 on Histone deacetylase 1 was 12 nM; in data set [13] it was 800 nM; against Histone deacetylase 3 it was 12 nM; in the data set on HeLa, 210 nM.
